Data on one molecule can be found in paper PMC8333425, “Discovery of a dual Ras and ARF6 inhibitor from a GPCR endocytosis screen” (Nature Communications, 2021).

In one assay the test system is MEK1. Kind of assay: Western blot of ERK1/2 phosphorylation induced by MEK1 (MEK1-WT / MEK1-DD). In kind it is cell-based, human. The protocol:
HEK293SL cells (10^5 cells per well) were seeded in a poly-L-lysine-coated six-well plate and transiently transfected with 3 μg Flag-AT1R, HA-B2R or HA-β2AR and/or 500 ng Flag-MEK1-WT, Flag-MEK1-DD, Flag-BRAF-WT, Flag-BRAF-V600E, Flag-K-Ras-WT, Flag-K-Ras-G12V, HA-ARF6-WT, or HA-ARF6-T27N. Gαq/11 KO and βarr1/2 KO cells were seeded onto 100 mm dishes at a density of 10^6 cells per dish. Next day, cells were transfected with 3 μg AT1R alone or along with 500 ng of β-arrestin2 using PEI. After 18 h of transfection, cells were detached and re-seeded onto poly-L-lysine coated 12-well plates (~1.5–2 × 10^5cells/well) for subsequent experiments. Forty-eight hours post transfection, in a 37 °C water bath, cells were serum-starved for 30 min, pretreated with DMSO (0.1%) or compound 21/Rasarfin (50 µM or at indicated concentrations) for 30 min, then stimulated or not with the indicated ligand [AngII (1 µM), BK (1 µM), Iso (10 µM) or EGF (100 ng/ml)] at indicated times. Cells were put on ice, washed with PBS and solubilized in 2x laemmli buffer (250 mM Tris–HCl pH 6.8, 2% SDS (w/v), 10% glycerol (v/v), 0.01% bromophenol blue (w/v) and 5% β-mercaptoethanol (v/v)) by heating at 65 °C for 15 min. Lysates were resolved on 10 or 14% SDS-PAGE, transferred to nitrocellulose membranes and immunoblotted for p-ERK1/2, ERK1/2, p-Akt, Akt, HA, Myc, β-actin or FLAG. ImageLab 5.2 software was used to quantify the digital blots as fold of the phosphorylated protein over total protein, which were then normalized as indicated in the figure legends. Uncropped immunoblots are provided in the Source Data file.
(In general: In western blotting, separated proteins are transferred to a membrane and probed.)

Assay [1] has as its system β-arrestin2 recruitment to B2R. Kind of assay: BRET recruitment of β-arrestin2 to B2R. In kind it is cell-based, human. The procedure: HEK293SL cells were seeded at a density of 7.5 × 10^5 cells per 100-mm dish and 24 h later, transiently transfected as such. For receptor internalization experiments, cells were transfected with 0.12 μg AT1R-RlucII, B2R-RlucII, or β2AR-RlucII and 0.48 μg of either rGFP-CAAX (to assess removal from the PM) or rGFP-FYVE (to assess accumulation in the endosomes). For β-arrestin recruitment assays, cells were transfected with 0.48 μg of receptor-YFP along with 0.12 μg of β-arrestin-RlucII. For β-arrestin/AP-2 binding experiments, cells were transfected with 1 μg Flag-AT1R, 1 μg β2-Adaptin-YFP, and 0.12 μg β-arrestin2-RlucII. For G protein activation, cells were transfected with 3 μg of sp-Flag-AT1R along with either 4.5 μg of the Gαq-polycistronic BRET sensor or 0.24 μg of the Gαi3-RlucII and 0.6 μg of GFP10-Gγ2 and Gβ1 sensors or 0.12 μg PKN-RBD-RlucII and 0.48 μg of rGFP-CAAX. For PKC activation, cells were transfected with 3 μg of sp-Flag-AT1R and 0.18 μg of the PKC sensor. For GTPase activation experiments, cells were transfected with 1 μg Flag-AT1R, 0.48 μg of rGFP-CAAX, and either 0.12 μg of GGA3-PBD-RlucII, PAK-CRIB-RlucII or Raf-RBD-RlucII. For biosensor validation experiments, cells were additionally transfected with 500 ng Flag-K-Ras-WT, Flag-K-Ras-G12V, Flag-K-Ras-SOS-CAAX, HA-ARF6-WT, HA-ARF6-T27N, Myc-Rac1-WT, Myc-Rac1-Q61L or Myc-Rac1-T17N. For PI3K/Akt activation experiments, cells were transfected with 0.48 μg of rGFP-CAAX and 0.12 μg of Akt (PH)-RlucII. After 18 h of transfection, the media was replaced and cells were divided for subsequent experiments. Cells were detached and seeded onto poly-L-ornithine-coated 96-well flat white bottom plates (BrandTech Scientific) at a density of 2.5 × 10^4 cells per well in media. The next day, cells were washed once with Tyrode’s buffer (140 mM NaCl, 2.7 mM KCl, 1 mM CaCl2, 12 mM NaHCO3, 5.6 mM D-glucose, 0.5 mM MgCl2, 0.37 mM NaH2PO4, 25 mM HEPES, pH 7.4) and left in Tyrode’s buffer. For kinetics of β-arrestin recruitment or β-arrestin binding to receptor and AP-2 experiments, cells were serum starved for 30 min, pretreated with 21 (50 µM) or Barbadin (100 µM) for 30 min, stimulated with 100 nM AngII or 1 µM BK and BRET signals were monitored at indicated times using a Victor X Light plate reader (PerkinElmer). Coelenterazine H (final concentration of 5 µM) was added 3–5 min prior to BRET measurements. Filter set was 460/80 nm and 535/30 nm for detecting the RlucII Renilla luciferase (donor) and YFP (acceptor) light emissions, respectively. The BRET ratio was determined by calculating the ratio of the light emitted by YFP over the light emitted by the RlucII. For G protein activation, cells were serum starved, pretreated with compounds for 30 min, stimulated with 100 nM AngII for 2 min (Gαq, Gαi3, and Rho sensors) or 5 min (PKC sensor). For the kinetics of GTPase and PI3K/Akt activation, cells were serum starved, pretreated with 21 (50 µM) or Wortmannin (200 nM) for 30 min, stimulated with ligand (100 nM AngII or 100 ng/ml EGF) and BRET signals were monitored at indicated times. For concentration-response curves, cells were serum-starved, pretreated with various concentrations of compounds for 30 min and stimulated with ligand (100 nM AngII, 1 µM BK, 10 µM Isoproterenol (Iso) or 100 ng/ml EGF) in Tyrode’s buffer for 30 min for receptor internalization, 10 min for ARF6, 2 min for Rac and Rho activation and 5 min for Ras activation and PI3K/Akt activation. BRET signals were monitored using a Synergy2 (BioTek) microplate reader and coelenterazine 400a (final concentrations of 5 µM) added 3–5 min prior to BRET measurements. Filter set was 410/80 nm and 515/30 nm for detecting the RlucII Renilla luciferase (donor) and rGFP/GFP10 (acceptor) light emissions, respectively. The BRET ratio was determined by calculating the ratio of the light emitted by rGFP/GFP10 over the light emitted by the RlucII.
A general note: In BRET a luciferase serves as donor, and the signal depends on an acceptor being close.

Values joined by “and” are separate entries in the source; they are usually repeats but may differ in a detail not shown here. Identical values can stand only once.

For the molecule `CC(C)C(=O)N1CCN(c2ccc(NC(=O)c3cc4ccccc4o3)cc2Cl)CC1` [Compound 21], in the assay on MEK1 (50 μM), the “ERK1/2 activation induced by overexpression of MEK1-DD” value is listed as “nor did it block ERK1/2 activation”. For the same molecule, the “Predicted (LS) mean diff. DMSO vs. compound (Bonferroni's multiple comparisons test)” value with MEK1 (Flag-MEK1 DD) is recorded as 0.4193; in the assay on MEK1 (Flag-MEK1 WT), 0.04596; in the assay with MEK1 (mock), 0. Besides, the “ERK1/2 phosphorylation relative to mock (S_Fig.4c)” value with MEK1 (Flag-MEK1 DD, listed as Comp 21) is 4.057 and 4.133 and 4.072 and 3.9273; with MEK1 (Flag-MEK1 WT, listed as Comp 21) it was 1.754 and 1.134 and 1.2368; in the assay with MEK1 (mock), 1. Moreover, the “β-arrestin2 recruitment to B2R at the PM” value in assay [1] (50 μM) is “did not preclude”. Further, the “BK-promoted BRET, Barr2” value in assay [1] (Time 0 min) was 0; in assay [1] (Time 5 min, listed as Comp 21) it was 0.1301 and 0.1897 and 0.1572; in assay [1] (Time 10 min, listed as Comp 21), 0.1662 and 0.2107 and 0.2145; in assay [1] (Time 15 min, listed as Comp 21) it was 0.1989 and 0.1955 and 0.2222; in assay [1] (Time 30 min, listed as Comp 21), 0.2065 and 0.1814 and 0.2273; in assay [1] (Time 60 min, listed as Comp 21), 0.2055 and 0.169 and 0.2219.
